Experimental data published in patent publication US20240287052A1, “NOVEL OXAZOLE DERIVATIVE AND PHARMACEUTICAL COMPOSITION FOR PREVENTING OR TREATING ALLERGIC DISEASES COMPRISING THE SAME” (AZCURIS CO., LTD., priority 2021, published 2024).
Read-outs that look alike come from different tables or passages of the source.

Biological target: T1, IL33 and ST2 binding (Homo sapiens, UniProt O95760)
T1 sequence (O95760 112-270 limits assumed): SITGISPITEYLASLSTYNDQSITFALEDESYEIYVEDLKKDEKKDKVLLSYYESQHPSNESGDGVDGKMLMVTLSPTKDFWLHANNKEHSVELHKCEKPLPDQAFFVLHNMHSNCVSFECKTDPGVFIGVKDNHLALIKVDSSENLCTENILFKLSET
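Further: plate ELISA with coated Flag-tagged human IL-33 and His-tagged human ST2, bound ST2 detected by anti-His HRP and TMB absorbance at 450 nm, 2 h compound incubation.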

Compound | inhibition (30 µM) | inhibition (100 µM)
CN1CCN(CCNC(=O)c2nc(-c3ccc(OC(F)(F)F)cc3)oc2-c2ccccc2[N+](=O)[O-])CC1 [Compound 206, N-(2-(4-methylpiperazin-1-yl)ethyl)-5-(2-nitrophenyl)-2-(4-(trifluoromethoxy)phenyl)oxazole-4-carboxamide] | 23% | 49%
COc1cccc(-c2nc(C(=O)NCCN3CCN(C)CC3)c(-c3ccccc3[N+](=O)[O-])o2)c1 [Compound 211, 2-(3-methoxyphenyl)-N-(2-(4-methylpiperazin-1-yl)ethyl)-5-(2-nitrophenyl)oxazole-4-carboxamide] | 13% | 20%
COc1ccc(-c2nc(C(=O)NCCN(C)C)c(-c3ccccc3)o2)cc1 [Compound 212, N-(2-(Dimethylamino)ethyl)-2-(4-methoxyphenyl)-5-phenyloxazole-4-carboxamide] | -26% | -22%
COc1ccc(-c2nc(C(=O)NCCN3CCN(C)CC3)c(-c3ccccc3)o2)cc1 [Compound 213, 2-(4-Methoxyphenyl)-N-(2-(4-methylpiperazin-1-yl)ethyl)-5-phenyloxazole-4-carboxamide] | -34% | -9%
COc1ccc(-c2nc(C(=O)NCCN3CCN(C)CC3)c(-c3ccccc3[N+](=O)[O-])o2)cc1 [Compound 215, 2-(4-Methoxyphenyl)-N-(2-(4-methylpiperazin-1-yl)ethyl)-5-(2-nitrophenyl)oxazole-4-carboxamide] | -12% | 33%
COc1ccc(-c2nc(C(=O)N3CCN(CCN(C)C)CC3)c(-c3ccccc3[N+](=O)[O-])o2)cc1 [Compound 216, (4-(2-(Dimethylamino)ethyl)piperazin-1-yl)(2-(4-methoxyphenyl)-5-(2-nitrophenyl)oxazol-4-yl)methanone] | 46% | 84%
COc1ccc(-c2nc(C(=O)N3CCN(CCN(C)C)CC3)c(-c3ccc([N+](=O)[O-])cc3)o2)cc1 [Compound 218, (4-(2-(Dimethylamino)ethyl)piperazin-1-yl)(2-(4-methoxyphenyl)-5-(4-nitrophenyl)oxazol-4-yl)methanone] | 32% | 39%
COc1ccc(-c2nc(C(=O)NCCN3CCN(C)CC3)c(-c3ccc([N+](=O)[O-])cc3)o2)cc1 [Compound 219, 2-(4-methoxyphenyl)-N-(2-(4-methylpiperazin-1-yl)ethyl)-5-(4-nitrophenyl)oxazole-4-carboxamide] | 11% | 44%
CN1CCN(CCNC(=O)c2nc(-c3cccc(F)c3)oc2-c2ccccc2)CC1 [Compound 221, 2-(3-Fluorophenyl)N-(2-(4-methylpiperazin-1-yl)ethyl)-5-phenyloxazole-4-carboxamide] | -34% | -21%
CN1CCN(CCNC(=O)c2nc(-c3ccc(F)cc3)oc2-c2ccccc2)CC1 [Compound 225, 2-(4-Fluorophenyl)-N-(2-(4-methylpiperazin-1-yl)ethyl)-5-phenyloxazole-4-carboxamide] | -6% | 7%
CN1CCN(CCNC(=O)c2nc(-c3ccc(F)cc3)oc2-c2ccccc2[N+](=O)[O-])CC1 [Compound 227, 2-(4-Fluorophenyl)-N-(2-(4-methylpiperazin-1-yl)ethyl)-5-(2-nitrophenyl)oxazole-4-carboxamide] | -22% | -28%
CN(C)CCN1CCN(C(=O)c2nc(-c3ccc(F)cc3)oc2-c2ccccc2[N+](=O)[O-])CC1 [Compound 228, (4-(2-(Dimethylamino)ethyl)piperazin-1-yl)(2-(4-fluorophenyl)-5-(2-nitrophenyl)oxazol-4-yl)methanone] | 24% | 43%
CN1CCN(CCNC(=O)c2nc(-c3ccc(F)cc3)oc2-c2ccc([N+](=O)[O-])cc2)CC1 [Compound 230, 2-(4-Fluorophenyl)-N-(2-(4-methylpiperazin-1-yl)ethyl)-5-(4-nitrophenyl)oxazole-4-carboxamide] | 15% | 0%
CN1CCN(CCNC(=O)c2nc(-c3ccc(F)c(F)c3)oc2-c2ccccc2)CC1 [Compound 232, 2-(3,4-Difluorophenyl)-N-(2-(4-methylpiperazin-1-yl)ethyl)-5-phenyloxazole-4-carboxamide] | -9% | 3%
CN1CCN(CCNC(=O)c2nc(-c3cc(F)cc(F)c3)oc2-c2ccccc2)CC1 [Compound 236, 2-(3,5-Difluorophenyl)-N-(2-(4-methylpiperazin-1-yl)ethyl)-5-phenyloxazole-4-carboxamide] | -8% | -7%
CN1CCN(CCNC(=O)c2nc(-c3cccc(Cl)c3)oc2-c2ccccc2)CC1 [Compound 241, 2-(3-Chlorophenyl)-N-(2-(4-methylpiperazin-1-yl)ethyl)-5-phenyloxazole-4-carboxamide] | 31% | 38%
CN1CCN(CCNC(=O)c2nc(-c3cccc(Cl)c3)oc2-c2ccccc2[N+](=O)[O-])CC1 [Compound 243, 2-(3-chlorophenyl)-N-(2-(4-methylpiperazin-1-yl)ethyl)-5-(2-nitrophenyl)oxazole-4-carboxamide] | 14% | -6%
CN1CCN(CCNC(=O)c2nc(-c3ccc(Cl)cc3)oc2-c2ccccc2)CC1 [Compound 245, 2-(4-Chlorophenyl)-N-(2-(4-methylpiperazin-1-yl)ethyl)-5-phenyloxazole-4-carboxamide] | 15% | 26%

Second part, the molecule after the results:

inhibition (30 µM) | inhibition (100 µM) | Compound
19% | 55% | COc1cccc(-c2nc(C(=O)NCCN(C)C)c(-c3ccccc3)o2)c1 [Compound 208, N-(2-(Dimethylamino)ethyl)-2-(3-methoxyphenyl)-5-phenyloxazole-4-carboxamide]
-11% | -19% | COc1cccc(-c2nc(C(=O)NCCN(C)C)c(-c3ccccc3[N+](=O)[O-])o2)c1 [Compound 210, N-(2-(Dimethylamino)ethyl)-2-(3-methoxyphenyl)-5-(2-nitrophenyl)oxazole-4-carboxamide]
-28% | -49% | COc1ccc(-c2nc(C(=O)NCCN(C)C)c(-c3ccccc3[N+](=O)[O-])o2)cc1 [Compound 214, N-(2-(Dimethylamino)ethyl)-2-(4-methoxyphenyl)-5-(2-nitrophenyl)oxazole-4-carboxamide]
-2% | -14% | CN(C)CCNC(=O)c1nc(-c2cccc(F)c2)oc1-c1ccccc1 [Compound 220, N-(2-(Dimethylamino)ethyl)-2-(3-fluorophenyl)-5-phenyloxazole-4-carboxamide]
-28% | -16% | CN(C)CCNC(=O)c1nc(-c2cccc(F)c2)oc1-c1ccccc1[N+](=O)[O-] [Compound 222, N-(2-(Dimethylamino)ethyl)-2-(3-fluorophenyl)-5-(2-nitrophenyl)oxazole-4-carboxamide]
29% | 38% | CN1CCN(CCNC(=O)c2nc(-c3cccc(F)c3)oc2-c2ccccc2[N+](=O)[O-])CC1 [Compound 223, 2-(3-Fluorophenyl)-N-(2-(4-methylpiperazin-1-yl)ethyl)-5-(2-nitrophenyl)oxazole-4-carboxamide]
-13% | -18% | CN(C)CCNC(=O)c1nc(-c2ccc(F)cc2)oc1-c1ccccc1 [Compound 224, N-(2-(Dimethylamino)ethyl)-2-(4-fluorophenyl)-5-phenyloxazole-4-carboxamide]
-25% | -8% | CN(C)CCNC(=O)c1nc(-c2ccc(F)cc2)oc1-c1ccccc1[N+](=O)[O-] [Compound 226, N-(2-(Dimethylamino)ethyl)-2-(4-fluorophenyl)-5-(2-nitrophenyl)oxazole-4-carboxamide]
-54% | -98% | CN(C)CCNC(=O)c1nc(-c2ccc(F)cc2)oc1-c1ccc([N+](=O)[O-])cc1 [Compound 229, N-(2-(Dimethylamino)ethyl)-2-(4-fluorophenyl)-5-(4-nitrophenyl)oxazole-4-carboxamide]
-27% | -27% | CN(C)CCNC(=O)c1nc(-c2ccc(F)c(F)c2)oc1-c1ccccc1[N+](=O)[O-] [Compound 233, 2-(3,4-Difluorophenyl)-N-(2-(dimethylamino)ethyl)-5-(2-nitrophenyl)oxazole-4-carboxamide]
13% | 19% | CN1CCN(CCNC(=O)c2nc(-c3ccc(F)c(F)c3)oc2-c2ccccc2[N+](=O)[O-])CC1 [Compound 234, 2-(3,4-Difluorophenyl)-N-(2-(4-methylpiperazin-1-yl)ethyl)-5-(2-nitrophenyl)oxazole-4-carboxamide]
3% | 36% | CN(C)CCNC(=O)c1nc(-c2cc(F)cc(F)c2)oc1-c1ccccc1 [Compound 235, 2-(3,5-Difluorophenyl)-N-(2-(dimethylamino)ethyl)-5-phenyloxazole-4-carboxamide]
-34% | -16% | CN(C)CCNC(=O)c1nc(-c2cc(F)cc(F)c2)oc1-c1ccccc1[N+](=O)[O-] [Compound 237, 2-(3,5-Difluorophenyl)-N-(2-(dimethylamino)ethyl)-5-(2-nitrophenyl)oxazole-4-carboxamide]
-14% | -12% | CN(C)CCNC(=O)c1nc(-c2cccc(Cl)c2)oc1-c1ccccc1[N+](=O)[O-] [Compound 242, 2-(3-Chlorophenyl)-N-(2-(dimethylamino)ethyl)-5-(2-nitrophenyl)oxazole-4-carboxamide]
0% | 38% | CN(C)CCNC(=O)c1nc(-c2ccc(Cl)cc2)oc1-c1ccccc1 [Compound 244, 2-(4-Chlorophenyl)-N-(2-(dimethylamino)ethyl)-5-phenyloxazole-4-carboxamide]
